Test results from PMC11753601 (Angewandte Chemie (International Ed. in English), 2024).

Tested on: E-Box DNA
Type: binding
Details: pH 8

## (AcATEENVKRRTHNVLERQRRNELKRSFFG)2K (sidechain bridge or staple) [MiniMYC 1]
  Binding to E-Box DNA in EMSA (in words): no binding

## (AcATEENVKRRTHNVLERQRRNELKRSSCFA)2-Linker (sidechain bridge or staple) [MiniMYC 3]
  Binding to E-Box DNA in EMSA (in words): did not show any specific association

## (AcVKRRTHNVLERQRRNELKRSFFALRDQIPELENNEKAPKVVILKKATAYILSAβC)2-linker (sidechain bridge or staple) [DuoMYC 7]
read-out: KD for E-Box DNA measured by EMSA
  Kd: ~174 nM
